Where two headings read alike, the source gives them in different places.
Key:
[1] = biological target: PI3K Delta (Homo sapiens, UniProt O00329); test: PI3K Delta enzyme inhibition; type: biochemical
[2] = test system: TNFα; test: LPS induced TNFα in MH-S (mouse alveolar macrophage) cells; type: cell-based
Method: (§1) MH-S represents a mouse alveolar macrophage cell line that secretes copious amounts of TNFα upon induction by LPS. Cells were plated at 150,000 cells per well. 10 nM of Compound A1 (final concentration) was added 15 minutes prior to the addition of roflumilast. LPS (1 μg/ml) was added and then incubated for 4 hours. The supernatant was collected after 20 hours and TNFα was estimated using an ELISA kit.

[3] = test system: TNFα; test: LPS induced TNFα in THP-1 (human monocyte) cells; type: cell-based; conditions: compound alone; THP-1 cells, LPS 1 μg/ml
Method: as §1, with “THP-1” for “MH-S”, “monocytic” for “mouse alveolar macrophage”, “that has elevated endogenous pAKT levels and” for “that”

[4] = test system: TNFα; test: LPS induced TNFα in human whole blood (HWB); type: cell-based; conditions: 100 nM alone
Method: Freshly collected HWB was diluted with media and incubated with the desired concentration of inhibitor for 15 min. LPS (1 μg/ml) was added and then incubated for 24 hours. The supernatant was collected and TNFα estimated using an eBioscience TNFα ELISA kit.
Freshly collected HWB was diluted with media and incubated with the desired concentration of inhibitor for 15 minutes. LPS (1 μg/ml) was added and then incubated for 24 hours. The supernatant was collected and TNFα estimated using an eBioscience TNFα ELISA kit.

[5] = test system: IFNγ; test: Con A+PMA induced IFNγ in human whole blood (HWB); type: cell-based; conditions: 10 nM alone
Method: (§2) Freshly collected HWB was diluted with media and incubated with the desired concentration of inhibitor for 15 minutes. Cytokine release was induced with the addition of Concanavalin A (25 μg/ml)+Phorbol Myristate Acetate (50 ng/ml). The supernatant was collected after 20 hours and IFNγ was estimated using an ELISA kit.

[6] = biological target: PI3K Gamma (Homo sapiens, UniProt P48736); test: PI3K Gamma enzyme inhibition; type: biochemical
[7] = test system: neutrophil infiltration; test: Lipopolysaccharide induced pulmonary neutrophilia in female Wistar rats; type: in vivo
Method: After the quarantine period, fasted animals were randomized and divided into groups depending on their body weights. Test compound was prepared as a suspension in a vehicle consisting of 0.5% methylcellulose in which Tween 80 was used as a suspending agent. Compounds or vehicle were administered by oral gavage in a volume of 10 mL/kg. Animals were anaesthetized with ketamine and LPS solution was administered intratracheally 30 minutes after compound administration at a dose of 1 mg/kg. Six hours after LPS instillation, animals were exsanguinated under anaesthesia, and the trachea was cannulated, and lungs were lavaged with 5-ml aliquots of heparinised PBS (1 unit/ml) four times through the tracheal cannula (total volume 20 ml). Bronchioalveolar (BAL) fluid was stored at 2-8° C. until assayed for total cell and differential leukocyte count. BAL fluid was centrifuged (500×g for 10 min) and the resulting cell pellet was resuspended in 0.5 ml of heparinised saline. The total numbers of white blood cells were determined in BAL fluid or blood using a cell counter and were adjusted to 1×10^6 cell/ml. Differential cell count was calculated manually. One hundred microliters of the cell suspension was centrifuged using cytospin 3 to prepare a cell smear. The cell smear was stained with a blood staining solution for differentiation and slides were microscopically observed to identify eosinophils according to their morphological characteristics. The number of each cell type among 300 white blood cells in the cell smear was determined and expressed as a percentage of total cells. The number of eosinophil in BALF was calculated.
The procedure for LPS induced pulmonary neutrophilia in female Wistar rats as described in Example 1 was performed with compound A1 and roflumilast.

[8] = test system: IFNγ; test: Con A+PMA induced IFNγ in PBMC; type: cell-based; conditions: 10 nM alone
Method: as §2, with “PBMC from whole blood were isolated by density gradient using Histopaque” for “Freshly collected HWB was diluted with media”, “Supernatant” for “The supernatant”

[9] = test system: macrophage and neutrophil infiltration; test: Acute cigarette smoke induced cell infiltration in male Balb/c mice; type: in vivo; conditions: acute CS; for ED50: oral
Method: Animals were acclimatized for seven days prior to the start of the experiment. Animals were randomly distributed to various groups based on their body weights. On day 1, mice were administered by test compound or vehicle by the oral route and after 30 mins test compound administration animals were placed in a whole body exposure box. The mice were exposed to the mainstream smoke of 6 cigarettes from day 1 to day 4. Exposure to the smoke of each cigarette lasted for 10 min (cigarettes were completely burned in the first two minutes and followed by an air flow with animal ventilator) followed by exposure for the next 20 min with fresh room air. After every second cigarette an additional break of 20 min with exposure to fresh room air was conducted. Control animals were exposed to the room air chamber. From day 1 to day 4 animals were administered test compound by the oral route. On day 5, 24 hours after the last cigarette smoke (CS) exposure. animals were exsanguinated under anaesthesia, and the trachea was cannulated and the lungs were lavaged with 0.5 ml aliquots of heparinised PBS (1 unit/ml) four times through a tracheal cannula (total volume 2 ml). Bronchioalveolar (BAL) collected was stored at 2-8° C. until assayed for total cell and differential leukocyte count. BAL fluid was centrifuged (500×g for 10 min) and the resulting cell pellet was resuspended in 0.5 ml of heparinised saline. The total number of white blood cells was determined in BAL fluid and blood using a blood cell counter and adjusted to 1×10^6 cell/ml. Differential cell count was calculated manually. Forty microliters of the cell suspension was centrifuged using cytospin 3 to prepare a cell smear. The cell smear was stained with a blood staining solution for differentiation and microscopically observed by identifying each cell according to its morphological characteristics. The number of each cell type among 300 white blood cells in the cell smear were determined and expressed as a percentage, and the number of neutrophils and macrophages in each BAL fluid were calculated.
The procedure for acute cigarette smoke induced cell infiltration in male Balb/c mice described in Example 1 was performed with Compound A1 and roflumilast

Sequence of PI3K Gamma (P48736 whole entry, species assumed): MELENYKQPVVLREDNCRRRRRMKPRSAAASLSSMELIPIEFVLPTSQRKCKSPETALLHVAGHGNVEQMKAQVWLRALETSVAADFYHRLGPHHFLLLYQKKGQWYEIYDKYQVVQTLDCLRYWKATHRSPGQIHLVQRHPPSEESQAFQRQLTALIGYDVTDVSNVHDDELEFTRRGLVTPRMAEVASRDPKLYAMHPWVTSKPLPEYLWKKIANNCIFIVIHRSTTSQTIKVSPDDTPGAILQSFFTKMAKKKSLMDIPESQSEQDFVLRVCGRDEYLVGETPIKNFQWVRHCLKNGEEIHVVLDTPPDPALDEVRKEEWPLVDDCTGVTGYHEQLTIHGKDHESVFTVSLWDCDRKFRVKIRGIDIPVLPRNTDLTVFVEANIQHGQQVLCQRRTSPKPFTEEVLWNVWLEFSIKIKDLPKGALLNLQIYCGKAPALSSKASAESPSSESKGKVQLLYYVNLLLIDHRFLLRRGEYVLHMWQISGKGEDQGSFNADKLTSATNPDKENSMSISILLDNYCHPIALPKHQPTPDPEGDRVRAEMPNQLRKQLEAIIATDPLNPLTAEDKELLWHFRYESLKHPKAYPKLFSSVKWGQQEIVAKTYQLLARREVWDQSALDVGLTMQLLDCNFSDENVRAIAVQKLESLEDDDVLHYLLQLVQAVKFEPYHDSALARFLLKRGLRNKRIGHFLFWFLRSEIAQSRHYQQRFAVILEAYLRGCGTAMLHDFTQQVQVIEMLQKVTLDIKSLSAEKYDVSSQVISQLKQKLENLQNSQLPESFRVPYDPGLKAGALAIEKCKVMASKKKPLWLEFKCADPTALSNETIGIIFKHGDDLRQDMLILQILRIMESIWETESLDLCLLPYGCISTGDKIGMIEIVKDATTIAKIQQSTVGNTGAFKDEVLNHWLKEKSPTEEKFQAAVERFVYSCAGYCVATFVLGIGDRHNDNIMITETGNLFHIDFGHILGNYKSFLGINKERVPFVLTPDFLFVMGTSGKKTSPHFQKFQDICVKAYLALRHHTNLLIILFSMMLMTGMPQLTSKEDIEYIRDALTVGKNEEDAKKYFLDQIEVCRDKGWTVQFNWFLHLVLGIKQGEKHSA
Sequence of PI3K Delta (O00329 whole entry, species assumed): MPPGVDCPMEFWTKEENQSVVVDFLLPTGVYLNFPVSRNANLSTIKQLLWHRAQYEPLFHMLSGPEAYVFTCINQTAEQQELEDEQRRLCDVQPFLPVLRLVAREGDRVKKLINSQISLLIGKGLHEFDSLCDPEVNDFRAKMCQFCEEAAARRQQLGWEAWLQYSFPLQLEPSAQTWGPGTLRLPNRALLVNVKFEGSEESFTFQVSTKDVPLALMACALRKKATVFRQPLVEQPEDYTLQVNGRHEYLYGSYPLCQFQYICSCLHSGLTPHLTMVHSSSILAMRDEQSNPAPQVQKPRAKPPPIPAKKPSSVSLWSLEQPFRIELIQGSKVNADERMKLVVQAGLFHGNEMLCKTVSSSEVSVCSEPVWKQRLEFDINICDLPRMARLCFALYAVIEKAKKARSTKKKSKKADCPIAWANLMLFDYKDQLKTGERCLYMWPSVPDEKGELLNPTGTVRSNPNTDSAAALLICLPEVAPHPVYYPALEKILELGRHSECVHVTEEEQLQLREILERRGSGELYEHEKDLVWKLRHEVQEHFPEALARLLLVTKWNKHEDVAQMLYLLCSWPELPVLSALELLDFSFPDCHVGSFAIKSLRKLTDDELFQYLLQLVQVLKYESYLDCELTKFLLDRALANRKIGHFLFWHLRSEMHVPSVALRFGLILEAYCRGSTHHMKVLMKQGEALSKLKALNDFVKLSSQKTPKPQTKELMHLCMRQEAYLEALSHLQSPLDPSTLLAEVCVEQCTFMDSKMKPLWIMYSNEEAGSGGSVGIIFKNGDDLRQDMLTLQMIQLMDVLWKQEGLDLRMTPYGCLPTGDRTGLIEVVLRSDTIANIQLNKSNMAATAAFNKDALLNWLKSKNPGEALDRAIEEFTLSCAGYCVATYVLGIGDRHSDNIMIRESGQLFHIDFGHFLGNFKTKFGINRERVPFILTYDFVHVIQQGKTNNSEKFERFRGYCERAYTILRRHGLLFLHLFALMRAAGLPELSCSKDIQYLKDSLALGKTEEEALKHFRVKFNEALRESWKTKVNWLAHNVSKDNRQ
Sequence of PI3K Delta (P27986 whole entry partner, species assumed): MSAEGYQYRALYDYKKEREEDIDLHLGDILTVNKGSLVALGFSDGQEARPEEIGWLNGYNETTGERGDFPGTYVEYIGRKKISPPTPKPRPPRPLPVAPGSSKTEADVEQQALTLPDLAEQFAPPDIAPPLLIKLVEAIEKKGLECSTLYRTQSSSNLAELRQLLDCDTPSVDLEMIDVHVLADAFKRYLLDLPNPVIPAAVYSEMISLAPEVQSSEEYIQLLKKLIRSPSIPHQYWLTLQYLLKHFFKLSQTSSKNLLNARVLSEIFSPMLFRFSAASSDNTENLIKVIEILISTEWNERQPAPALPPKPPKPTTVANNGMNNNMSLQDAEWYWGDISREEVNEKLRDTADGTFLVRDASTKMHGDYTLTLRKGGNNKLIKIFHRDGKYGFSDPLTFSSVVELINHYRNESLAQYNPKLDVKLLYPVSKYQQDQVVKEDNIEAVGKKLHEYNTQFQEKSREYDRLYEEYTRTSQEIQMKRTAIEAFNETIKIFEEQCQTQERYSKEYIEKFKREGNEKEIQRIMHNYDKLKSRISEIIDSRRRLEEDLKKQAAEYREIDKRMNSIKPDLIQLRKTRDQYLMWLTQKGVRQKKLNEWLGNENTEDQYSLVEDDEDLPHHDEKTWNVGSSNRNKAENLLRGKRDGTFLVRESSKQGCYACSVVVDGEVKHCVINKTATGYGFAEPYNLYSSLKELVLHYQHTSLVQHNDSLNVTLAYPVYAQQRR

Structure (SMILES): CC(C)Oc1ccc(-c2nn(C(C)c3oc4cccc(F)c4c(=O)c3-c3cccc(F)c3)c3ncnc(N)c23)cc1F (single isomer, unassigned; (+)) [Compound A1, (+)-2-(1-(4-amino-3-(3-fluoro-4-isopropoxyphenyl)-1H-pyrazolo[3,4-d]pyrimidin-1-yl)ethyl)-5-fluoro-3-(3-fluorophenyl)-4H-chromen-4-one]
- IC50 [1]: < 0.04 µM
- decrease in TNFα secretion ([2]; 15 nM alone): ~10%
- inhibition of TNFα ([2]; compound alone, LPS 1 μg/ml): dose-dependently inhibited TNFα
- inhibition of TNFα [3]: dose-dependently inhibited TNFα
- effect on TNFα secretion [4]: did not affect TNFα secretion
- effect on IFNγ secretion [5]: did not affect IFNγ secretion
- IC50 [6]: < 0.04 µM
- percent inhibition of neutrophil infiltration ([7]; 0.1 mg/kg oral, rat BAL fluid 6 h after LPS): 17.83%
- percent inhibition of neutrophil infiltration ([7]; 1 mg/kg oral, dose-response study, rat): 51.76%
- percent inhibition of neutrophil infiltration ([7]; 10 mg/kg oral, rat): 70.21%
- ED50 ([7]; Neutrophil, oral, rat LPS pulmonary neutrophilia, read-out: 50% inhibition (ED50) dose, neutrophil infiltration): 1.3 mg/kg
- inhibition of neutrophil infiltration ([7]; combination study, alone at 1.3 mg/kg, rat): 43.02%
- effect on IFNγ secretion [8]: did not affect IFNγ secretion
- percent inhibition of neutrophil infiltration ([9]; 0.1 mg/kg oral, mouse): 14.76%
- percent inhibition of macrophage infiltration ([9]; 0.1 mg/kg oral, mouse BAL): 20.60%
- percent inhibition of neutrophil infiltration ([9]; 0.3 mg/kg oral, mouse): 51.31%
- percent inhibition of macrophage infiltration ([9]; 0.3 mg/kg oral, dose-response study, mouse): 75.19%
- percent inhibition of macrophage infiltration ([9]; 1 mg/kg oral, mouse): 93.11%
- percent inhibition of neutrophil infiltration ([9]; 1 mg/kg oral, mouse): 112.83%
- ED50 ([9]; Macrophage, mouse, read-out: 50% inhibition (ED50) dose, macrophage infiltration): 0.2 mg/kg
- ED50 ([9]; Neutrophil, mouse, read-out: dose of 50% inhibition (ED50) of neutrophil infiltration): 0.26 mg/kg
- inhibition of neutrophil infiltration ([9]; combination study, alone at 0.25 mg/kg, mouse): 36.69%
- inhibition of macrophage infiltration ([9]; combination study, alone at 0.3 mg/kg, mouse): 31.33%

From patent US10413532B2, “Pharmaceutical compositions containing a PDE4 inhibitor and a PI3 delta or dual PI3 delta-gamma kinase inhibitor” (Rhizen Pharmaceuticals SA, priority 2012, dated 2019)
